From PubChem BioAssay AID179 (DTP/NCI, 2004) come the findings set out here.

This test concerns CEM cells HIV-1 protection, formazan growth assay. Kind of test: NCI AIDS Antiviral Assay. Conditions: for IC50: measured here: growth of uninfected CEM cells. In short, it runs like this: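 CEM (human) cells, HIV-1 infected vs uninfected, 5-point dosing, formazan growth read-out. Retest threshold 50% protection.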

The source made the active and inactive calls.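 How the source made its calls: active means compounds giving half or more protection of infected cells from virus-caused growth loss, again on retest; inactive means the rest.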 Where a SMILES comes first, the peptide text is derived from it. [ ]: non-standard residue; d: D form. The star is where a group is joined. Phe(2-OMe) = COc1ccccc1C[CH](N)C(=O)O; Cbz = O=C(OCc1ccccc1)*; OBn = c1ccc(CO*)cc1

As for `COc1ccc2c3csc4ccccc4c-3nc2c1`, the EC50 was more than 200 µM and the IC50 turned out to be 0.427 µM.

As to `O=C1OS(=O)(=O)c2ccccc21`, the EC50 is more than 200 µM and the IC50 is more than 200 µM.

On to `N#Cc1cc([N+](=O)[O-])ccc1NC(=O)/C(=N/N)C(C(=O)c1ccc(Cl)c(Cl)c1)C1OC(=O)c2ccccc21` (stereo not given), for which the EC50 is more than 64.6 µM and the half-maximal inhibitory concentration (IC50) was more than 64.6 µM.

On to `CC(/C=N/Nc1ccc([N+](=O)[O-])cn1)=N/Nc1ccc([N+](=O)[O-])cn1`, for which the EC50 was more than 200 µM and the concentration for half-maximal inhibition (IC50) was more than 200 µM.

As for `Nc1c2c([nH]c(=O)c1N=O)CCC2`, the EC50 was more than 200 µM and the half-inhibitory concentration (IC50) is more than 200 µM.

Consider `N[C@H]1c2c(Br)sc(Br)c2C(=O)[C@H]1O`, for which the EC50 is more than 200 µM and the half-inhibitory concentration (IC50) came to 7.59 µM.

Consider `CCOC(=O)[C@H](Cc1ccccc1)NC(=O)c1nc[nH]c1[N+](=O)[O-]`, for which the EC50 is more than 537 µM and the 50% inhibitory concentration (IC50) stood at 372 µM.

`CCC1(c2ccccc2)C(=O)N=C(c2ccccc2)N1CCc1ccccc1` (stereo not given): the EC50 was more than 200 µM and the half-inhibitory concentration (IC50) was more than 200 µM.

`COP1(=O)OC(C)=C(C)c2cccn21` (stereo not given): the EC50 is more than 60.3 µM and the half-inhibitory concentration (IC50) is more than 60.3 µM.

Turning to `COC1C=CC23c4cc5c(cc4COC2(O)CN(C)C3C1)OCO5` (stereo not given), the EC50 is more than 550 µM and the IC50 is more than 550 µM.

Take `CC(=O)NNc1nc(C)c(C(=O)NNC(=O)C(=O)Nc2c(C)cccc2C(C)C)s1`: the EC50 was more than 60.3 µM and the IC50 amounted to 52.5 µM.

As for `COC(=O)C12C(=CCP1(C)=O)C(c1ccccc1)=NN2c1ccccc1` (stereo not given), the EC50 is more than 27.5 µM and the IC50 is more than 27.5 µM.

On to `Cc1cccnc1NC(=S)Nc1ncccc1C`, for which the EC50 is more than 200 µM and the IC50 stood at 186 µM.

As for `CC(=O)NC(C=O)C(O[C@H](C)C(=O)NC(C)C(=O)NC(CCC(N)=O)C(=O)OCc1ccccc1)C(O)C(O)COC(=O)CCNc1c2ccccc2nc2cccc([N+](=O)[O-])c12` (stereo not given in full), the EC50 was more than 21.4 µM and the concentration for half-maximal inhibition (IC50) was found to be 15.1 µM.

`CC1c2c(cc(=O)n(C)c2O)C(=O)N1C` (stereo not given): the EC50 was 288 µM and the 50% inhibitory concentration (IC50) was determined as 457 µM.

Consider `N#C/C(=C\c1cc(O)c(O)c(O)c1)C(N)=O`, for which the EC50 was more than 200 µM and the IC50 was found to be 91.2 µM.

For the compound `Cc1ccnc(NS(=O)(=O)c2ccc(NC(=O)Nc3ccc(Cl)c(C(F)(F)F)c3)cc2)n1`, the outcome was inactive.

Regarding `O=C1NC(=O)C(=CN2C(=O)/C(=C/c3ccc(O)cc3)SC2=S)C(=O)N1`, the EC50 is more than 200 µM and the IC50 worked out at 41.7 µM.

Consider `NC(=S)N/N=C1\C(=O)N(c2cccc([N+](=O)[O-])c2)C(=O)C1C(=O)Nc1cccc([N+](=O)[O-])c1` (stereo not given), for which the outcome was inactive.

Turning to `CC(C)OC1CC(C)(C)c2c(-c3ccccc3)nn(-c3ccccc3)c2O1` (stereo not given), the EC50 was more than 61.7 µM and the half-inhibitory concentration (IC50) is 38 µM.

For `CC(C)(C)OC(=O)NC(Cc1ccc(OCc2ccccc2)cc1)C(=O)NC(COCc1ccccc1)C(=O)Oc1c(Cl)c(Cl)c(Cl)c(Cl)c1Cl` (stereo not given), the EC50 was more than 100 µM and the IC50 is 44.7 µM.

Take `CC1CCN(CC(=O)N2c3ccccc3Sc3cc4ccccc4cc32)CC1`: the concentration for a half-maximal effect (EC50) was more than 151 µM and the concentration for half-maximal inhibition (IC50) is more than 151 µM.

For the compound `COC1/C=C/OC2(C)Oc3c(C)c(O)c4c(O)c(cc(OCC(=O)N(C)C5CCCC5)c4c3C2=O)NC(=O)/C(C)=C/C=C/C(C)C(O)C(C)C(O)C(C)C(OC(C)=O)C1C` (stereo not given), the EC50 was more than 200 µM and the IC50 came to 28.8 µM.

As to `CCN(CC)C(=S)SCn1ncc2ccc([N+](=O)[O-])cc21`, the EC50 was more than 107 µM and the half-maximal inhibitory concentration (IC50) was determined as 10 µM.

For `Cc1cc(NS(=O)(=O)c2ccc(Nc3c4ccccc4nc4c(C(=O)NCCN(C)C)cccc34)cc2)no1`, the outcome was inactive.

For the compound `CCCC[P+](CCCC)(CCCC)C(C(=O)OC)C(C(=O)OC)=C1SC(C(=O)OC)=C(C(=O)OC)S1` (stereo not given), the EC50 was more than 200 µM and the IC50 was more than 200 µM.

As to `O=C(O)c1ccccc1-c1c2ccc(=O)c(I)c-2oc2c(I)c(O)ccc12`, the EC50 is more than 316 µM and the IC50 came out at 19.1 µM.

Consider `COc1ccc(C[N+](C)(C)N)cc1OC`, for which the EC50 is more than 200 µM and the IC50 is more than 200 µM.

On to `O/N=C1/CCCC/C1=C/C=C/c1ccccc1`, for which the EC50 was more than 16.6 µM and the half-maximal inhibitory concentration (IC50) is more than 16.6 µM.

`CC/C(=C(\C#N)c1ccc(OC)cc1)c1ccc(N(C)C)cc1`: the EC50 is more than 20 µM and the concentration for half-maximal inhibition (IC50) was determined as 0.871 µM.

Regarding `O=c1cnn2c(n1)sc1ccc3ccccc3c12`, the EC50 was more than 50.1 µM and the concentration for half-maximal inhibition (IC50) is more than 50.1 µM.

In the case of `CCn1cnc2c(NC(C)=O)ncnc21`, the EC50 was more than 200 µM and the IC50 was more than 200 µM.

Turning to `CCOC(=O)c1nc2c(C)nc(N(C)C)nc2n(C)c1=O`, the EC50 was more than 200 µM and the IC50 was more than 200 µM.

Regarding `CC1CN2COC(=S)SSSSC(=S)OCN3CC(C)N(COC(=S)SSSSC(=S)OCN1CC2C)CC3C` (stereo not given), the EC50 is more than 100 µM and the IC50 came out at 12 µM.

Consider `N#CC1C(=S)NC(c2ccccc2)=CC12CCCCC2` (stereo not given), for which the EC50 was more than 200 µM and the IC50 worked out at 42.7 µM.

`CCC(C)[C@@H](NCc1ccccc1)[C@H](OCc1ccccc1)[C@@H]1COC(C)(C)O1` (stereo not given in full): the EC50 was more than 200 µM and the half-inhibitory concentration (IC50) turned out to be 22.4 µM.

On to `Cc1ccc(/C(C#N)=C/c2ccc(N(C)C)cc2)cc1`, for which the EC50 was more than 200 µM and the IC50 stood at 1.29 µM.

`CCOC(=O)CC1COc2ccc3c(c21)OCO3` (stereo not given): the EC50 was more than 525 µM and the concentration for half-maximal inhibition (IC50) is 339 µM.

Regarding `C/C=C/C=Nc1c(C#N)c2n(c1C(=O)Nc1ccc(S(N)(=O)=O)cc1)CCC2`, the EC50 was more than 200 µM and the concentration for half-maximal inhibition (IC50) came to 11 µM.

Turning to `Cc1c(C)c2c(c(N)c1C#N)C(=O)N(O)C2=O`, the EC50 is more than 200 µM and the IC50 is more than 200 µM.

Turning to `COc1ccc(C2(c3ccc(OC)cc3)N=NC3(C)CC32)cc1` (stereo not given), the EC50 was more than 91.2 µM and the half-inhibitory concentration (IC50) worked out at 89.1 µM.

As for `O=C1CCC2(O1)c1ccc(O)cc1Oc1cc(O)ccc12`, the EC50 was more than 200 µM and the IC50 was more than 200 µM.

Turning to `O=[N+]([O-])c1cc(Cl)cc2cc(Br)cnc12`, the EC50 was more than 200 µM and the half-maximal inhibitory concentration (IC50) is more than 200 µM.

Regarding `CS/C1=C(\c2ccc(C)cc2)N(c2ccccc2)C(=O)C(=O)N(c2ccccc2)/C(c2ccc(C)cc2)=C(/SC)SS1`, the EC50 is more than 200 µM and the half-inhibitory concentration (IC50) was 47.9 µM.

In the case of `CSC1=Nc2ccccc2N=C(N2CCCC2)C1`, the EC50 is 4.47 µM and the 50% inhibitory concentration (IC50) is more than 200 µM.

`COC(=O)C1C2CCCN2OC1(C)CO` (stereo not given): the EC50 was more than 200 µM and the IC50 was more than 200 µM.

Take `COc1cc(C2SC(N)=Nc3c2c(C)nn3C(=O)c2ccc(Cl)cc2)ccc1O` (stereo not given): the EC50 was more than 200 µM and the IC50 is more than 200 µM.

With `COc1ccc(Cc2nnc3nc(OC)c(-c4ccc(OC)cc4)n3n2)cc1`, the EC50 was more than 50.1 µM and the half-maximal inhibitory concentration (IC50) was more than 50.1 µM.

Consider `CC(=O)OC1C=CC(OC(C)=O)C2C1[C@H]1C3C=CC=CC3[C@@H]2S1=O` (stereo not given in full), for which the EC50 was more than 200 µM and the concentration for half-maximal inhibition (IC50) is 112 µM.

On to `Nc1ccc(-c2cc3ccccc3[nH]2)cc1`, for which the EC50 was more than 148 µM and the 50% inhibitory concentration (IC50) was 117 µM.

As to `C=CC/C=C/C/C=C/CCCCCCCc1cccc(O)c1C(=O)O`, the EC50 was more than 105 µM and the IC50 came out at 56.2 µM.

Regarding `CC(=O)OC1OC2C(NC(=O)OC(C)(C)C)C1CC2(OCc1ccccc1)OCc1ccccc1` (stereo not given), the EC50 was more than 28.2 µM and the 50% inhibitory concentration (IC50) is more than 28.2 µM.

On to `CC(=O)OCC(=O)[C@@]1(O)CC[C@H]2[C@@H]3CCC4=CC(=O)C=C[C@]4(C)[C@@]3(F)[C@@H](O)C[C@@]21C`, for which the result was inactive.

`CC(=O)OCC1OC(n2c(C)cc(-c3ccco3)c(C#N)c2=S)C(OC(C)=O)C(OC(C)=O)C1OC(C)=O` (stereo not given): the concentration giving a half-maximal response (EC50) was 126 µM and the IC50 is more than 200 µM.

`CC(OC(=O)NCn1cc(-c2ccccc2)nn1)c1ccccc1` (stereo not given): the EC50 is 56.2 µM and the half-inhibitory concentration (IC50) came to 75.9 µM.

As for `Cc1cc(=O)[nH]c(CO)n1`, the EC50 was more than 200 µM and the concentration for half-maximal inhibition (IC50) was more than 200 µM.

On to `CC(=O)NC(CCC(=O)C=[N+]=N)C(=O)O` (stereo not given), for which the EC50 was more than 200 µM and the half-inhibitory concentration (IC50) is 29.5 µM.

For `O=c1c(C(c2ccc([N+](=O)[O-])cc2)c2c(O)c3ccccc3n(-c3ccccc3)c2=O)c(O)c2ccccc2n1-c1ccccc1`, the EC50 was more than 11.7 µM and the half-inhibitory concentration (IC50) is more than 11.7 µM.

On to `O=[N+]([O-])c1cnc(N(CCO)CCO)s1`, for which the EC50 was more than 200 µM and the IC50 was more than 200 µM.

In the case of `CC(C)(C)OC(=O)NC1CCCC1C(=O)C1=CCCC1` (stereo not given), the EC50 was more than 200 µM and the IC50 was 105 µM.

With `COC(=O)C(Cc1ccccc1OC)NC(=O)C(CC(=O)OCc1ccccc1)NC(=O)OCc1ccccc1` (stereo not given) (Cbz-Asp(OBn)-[Phe(2-OMe)]-OMe; configuration not given here), the EC50 is more than 200 µM and the IC50 amounted to 30.2 µM.

With `CC(=O)ONc1nn2cc(-c3ccccc3)nc2s1`, the EC50 was more than 200 µM and the IC50 is more than 200 µM.

As to `COCN1C(=O)[C@@H]2CCCN2C(=O)c2cc(OC)c(Cc3ccccc3)cc21`, the EC50 was more than 200 µM and the 50% inhibitory concentration (IC50) is more than 200 µM.

As to `O=C1c2nc3n(c2C(=O)c2c1nc1n2CCC1)CCC3`, the EC50 was more than 200 µM and the IC50 is 3.72 µM.

As for `O=[S@](c1ccccc1)[C@@H]1CC2C3CC4C2C4C31` (stereo not given in full), the EC50 was more than 537 µM and the half-maximal inhibitory concentration (IC50) stood at 324 µM.

Take `Cc1cc(=O)oc2cc(OCCCOc3ccc4c(C)cc(=O)oc4c3)ccc12`: the EC50 was more than 3.72 µM and the 50% inhibitory concentration (IC50) is more than 3.72 µM.

Take `Cc1ccc(-c2nnc3s/c(=C\c4ccc(N(C)C)cc4)c(=O)n23)cc1`: the EC50 is more than 27.5 µM and the IC50 worked out at 16.2 µM.

For `CC[n+]1c([S-])nn(C)c1-c1cnccn1`, the EC50 was more than 200 µM and the IC50 is more than 200 µM.

As for `CC1=CC(=O)N2CCN=C2S1`, the EC50 is more than 200 µM and the IC50 is more than 200 µM.

For `CC/C=C/c1cc2cc[nH]c2c2c1C(C)C[C@@H]2C` (stereo not given in full), the outcome was inactive.

For orientation: EC50 means the midpoint of the concentration-response curve. Usually IC50 stands for the concentration needed to halve the response being measured.
